Source: US20160317676A1, “METHODS AND COMPOSITIONS FOR DELIVERY OF NUCLEIC ACIDS” (Tekmira Pharmaceuticals Corporation, priority 2009, published 2016)
Values joined by “and” are separate entries in the source; they are usually repeats but may differ in a detail not shown here. Equal values may be shown once.

Key:
Factor VII = experiment: In vivo mouse Factor VII silencing model (FVII siRNA in lipid formulations, serum FVII chromogenic assay); design: species or system C57Bl/6 mice; conditions: for ED50: dose giving 50% reduction in plasma FVII vs control animals, i.v. tail vein, 24 h, FVII siRNA formulation; for Lipid B ED50: Lipid B by itself; for % residual FVII: 40% cationic lipid/10% DSPC/40% cholesterol/10% PEG-DMG, FIG. 4; for Lipid A ED50: Lipid A by itself
Description: C57BL/6 mice (Charles River Labs, MA) received either saline or siRNA in desired formulations via tail vein injection at a volume of 0.01 mL/g. At various time points post-administration, animals were anesthesized by isofluorane inhalation and blood was collected into serum separator tubes by retro orbital bleed. Serum levels of Factor VII protein were determined in samples using a chromogenic assay (Coaset Factor VII, DiaPharma Group, OH or Biophen FVII, Aniara Corporation, OH) according to manufacturer protocols. A standard curve was generated using serum collected from saline treated animals. In experiments where liver mRNA levels were assessed, at various time points post-administration, animals were sacrificed and livers were harvested and snap frozen in liquid nitrogen. Frozen liver tissue was ground into powder. Tissue lysates were prepared and liver mRNA levels of Factor VII and apoB were determined using a branched DNA assay (QuantiGene Assay, Panomics, CA).
Factor VII (FVII), a prominent protein in the coagulation cascade, is synthesized in the liver (hepatocytes) and secreted into the plasma. FVII levels in plasma can be determined by a simple, plate-based colorimetric assay. As such, FVII represents a convenient model for determining sirna-mediated downregulation of hepatocyte-derived proteins, as well as monitoring plasma concentrations and tissue distribution of the nucleic acid lipid particles and siRNA.
C57BL/6 mice (Charles River Labs, MA) received either saline or formulated siRNA via tail vein injection. At various time points after administration, serum samples were collected by retroorbital bleed. Serum levels of Factor VII protein were determined in samples using a chromogenic assay (Biophen FVII, Aniara Corporation, OH). To determine liver mRNA levels of Factor VII, animals were sacrificed and livers were harvested and snap frozen in liquid nitrogen. Tissue lysates were prepared from the frozen tissues and liver mRNA levels of Factor VII were quantified using a branched DNA assay (QuantiGene Assay, Panomics, CA).
FVII activity was evaluated in FVII siRNA-treated animals at 48 hours after intravenous (bolus) injection in C57BL/6 mice. FVII was measured using a commercially available kit for determining protein levels in serum or tissue, following the manufacturer's instructions at a microplate scale. FVII reduction was determined against untreated control mice, and the results were expressed as % Residual FVII. Two dose levels (0.05 and 0.005 mg/kg FVII siRNA) were used in the screen of each novel liposome composition.
Test formulations were initially assessed for their FVII knockdown in female 7-9 week old, 15-25 g, female C57B1/6 mice at 0.1, 0.3, 1.0 and 5.0 mg/kg with 3 mice per treatment group. All studies included animals receiving either phosphate-buffered saline (PBS, Control group) or a benchmark formulation. Formulations were diluted to the appropriate concentration in PBS immediately prior to testing. Mice were weighed and the appropriate dosing volumes calculated (10 μl/g body weight). Test and benchmark formulations as well as PBS (for Control animals) were administered intravenously via the lateral tail vein. Animals were anesthetised 24 h later with an intraperitoneal injection of Ketamine/Xylazine and 500-700 μl of blood was collected by cardiac puncture into serum separator tubes (BD Microtainer). Blood was centrifuged at 2,000×g for 10 min at 15° C. and serum was collected and stored at −70° C. until analysis. Serum samples were thawed at 37° C. for 30 min, diluted in PBS and aliquoted into 96-well assay plates. Factor VII levels were assessed using a chromogenic assay (Biophen FVII kit, Hyphen BioMed) according to manufacturer's instructions and absorbance measured in microplate reader equipped with a 405 nm wavelength filter. […]

[1] = Determination of pKa of formulated lipids with the fluorescent probe TNS; conditions: for Lipid B pKa (±0.2): Lipid B by itself, formulation 40:10:40:10
Description: The pKa values for the different ionizable cationic lipids were determined essentially as described (Eastman et al., 1992 Biochemistry 31:4262-4268, which is incorporated by reference in its entirety) using the fluorescent probe 2-(p-toluidino)-6-naphthalenesulfonic acid (TNS), which is non-fluorescent in water but becomes appreciably fluorescent when bound to membranes. Vesicles composed of cationic lipid/DSPC/CH/PEG-c-DOMG (40:10:40:10 mole ratio) were diluted to 0.1 mM in buffers (130 mM NaCl, 10 mM CH3COONH4, 10 mM MES, 10 mM HEPES) of various pH values ranging from 2 to 11. An aliquot of the TNS aqueous solution (1 μM final) was added to the diluted vesicles and after a 30 second equilibration period the fluorescent of the TNS-containing solution was measured at excitation and emission wavelengths of 321 nm and 445 nm, respectively. The pKa of the cationic lipid-containing vesicles was determined by plotting the measured fluorescence against the pH of the solutions and fitting the data to a Sigmodial curve using the commercial graphing program IgorPro.

[2] = TNS assay, vesicles cationic lipid/DSPC/CH/PEG-c-DOMG 40:10:40:10
[3] = probe 2-(p-toluidino)-6-naphthalenesulfonic acid (TNS), 1 µM final, pKa, TNS assay, vesicles cationic lipid/DSPC/CH/PEG-c-DOMG 40:10:40:10

SMILES | pKa [1, 3] | ED50 (Factor VII) | also measured
CCCCC/C=C\C/C=C\CCCCCCCC1OC2(CCN(C)CC2)OC1CCCCCCC/C=C\C/C=C\CCCCC (stereo not shown) [ALNY-156] |  | <0.1 mg/kg | pKa [1, 2]: 6.08
CCCCC/C=C\C/C=C\CCCCCCCCC1(CCCCCCCC/C=C\C/C=C\CCCCC)OCCC(CCN(C)C)O1 (stereo not shown) [DLin-K6A-C2-DMA] | 6.73 | 0.25 mg/kg | 
CCCCC/C=C\C/C=C\CCCCCCCCC1(CCCCCCCC/C=C\C/C=C\CCCCC)OCCC(CCCN(C)C)O1 (stereo not shown) [DLin-K6A-C3-DMA] | 6.95 | 0.70 mg/kg | 
CCCCC/C=C\C/C=C\CCCCCCCCC(CCCCCCCC/C=C\C/C=C\CCCCC)CN(C)CCNC(=N)N [ALNY-139] | 10 | 5.00 mg/kg | 
CCCCC/C=C\C/C=C\CCCCCCCCC1(CCCCCCCC/C=C\C/C=C\CCCCC)O[C@@H]2C3CC([C@H](N(C)C)C3)[C@@H]2O1 (stereo partly shown) [ALNY-171] | 6.63 | 0.25 mg/kg | 
CCCCC/C=C\C/C=C\C/C=C\C/C=C\CCCCC1(CCCC/C=C\C/C=C\C/C=C\C/C=C\CCCCC)OCC(CCN(C)C)O1 (stereo not shown) [DAra-K5-C2-DMA] | 6.26 | 0.52 mg/kg | 
CC/C=C\C/C=C\C/C=C\CCCCCCCCC1(CCCCCCCC/C=C\C/C=C\C/C=C\CC)OCC(CCN(C)C)O1 (stereo not shown) [DLen-K5-C2-DMA] | 6.59 | 0.05 mg/kg | 
CC/C=C\C/C=C\C/C=C\C/C=C\C/C=C\C/C=C\CCCC1(CCC/C=C\C/C=C\C/C=C\C/C=C\C/C=C\C/C=C\CC)OCC(CCN(C)C)O1 (stereo not shown) [DDha-K5-C2-DMA] | 6.09 | 0.20 mg/kg | 
CCCCC/C=C\C/C=C\CCCCCCCCC1(CCCCCCCC/C=C\C/C=C\CCCCC)OCC(CCCCN(C)C)CO1 [DLin-K6S-C4-DMA] | 7.61 | 4.00 mg/kg | 
CCCCC/C=C\C/C=C\CCCCCCCCC(CCCCCCCC/C=C\C/C=C\CCCCC)OC(=O)CCCNC [DLin-M-C3-MA] |  | 5.00 mg/kg | 
CCCCC/C=C\C/C=C\CCCCCCCCC1(CCCCCCCC/C=C\C/C=C\CCCCC)OCC(NC(=N)N)O1 (stereo not shown) [ALNY-232] | 10 |  | 
CCCCC/C=C\C/C=C\CCCCCCCCC(CCCCCCCC/C=C\C/C=C\CCCCC)OC(=O)CCCN(C)CC [DLin-M-C3-MEA] |  | 0.03 mg/kg | pKa [1, 2]: 6.21
CCCCC/C=C\C/C=C\CCCCCCCCC(CCCCCCCC/C=C\C/C=C\CCCCC)CN(C)C [ALNY-181] |  | 0.25 mg/kg | 
CCCCC/C=C\C/C=C\CCCCCCCCC(CCCCCCCC/C=C\C/C=C\CCCCC)OC(=O)CCN(C)C [DLin-M-C2-DMA] |  | 0.60 mg/kg and 0.6 mg/kg | % residual FVII (Factor VII; 0.05 mg/kg siRNA): about 90%; % residual FVII (Factor VII; 0.10 mg/kg siRNA): about 90%; Lipid A ED50 (Factor VII; formulation 40:10:40:10): 0.600 mg/kg; Lipid A pKa (±0.2) ([1]; Lipid A by itself, formulation 40:10:40:10 (cationic lipid:DSPC:cholesterol:PEG-DMG)): 5.64; pKa [1, 2]: 5.64
CCCCC/C=C\C/C=C\CCCCCCCCC1(CCCCCCCC/C=C\C/C=C\CCCCC)OCC(CCN(C)C)CO1 [DLin-K6S-C2-DMA] | 7.25 | 3.00 mg/kg | 
CCCCC/C=C\C/C=C\C/C=C\CCCCCC(CCCCC/C=C\C/C=C\C/C=C\CCCCC)OC(=O)CCCCN(C)C [DLen(γ)-M-C4-DMA] | 6.75 | 0.50 mg/kg | 
CCCCC/C=C\C/C=C\CCCCCCCCC(CCCCCCCC/C=C\C/C=C\CCCCC)OC(=O)CCCCN(C)C [DLin-M-C4-DMA] |  | 0.15 mg/kg | % residual FVII (Factor VII; 0.05 mg/kg siRNA): about 90%; % residual FVII (Factor VII; 0.10 mg/kg siRNA): about 90%; Lipid B ED50 (Factor VII; formulation 40:10:40:10): 0.150 mg/kg; Lipid B pKa (±0.2) [1]: 6.93; pKa [1, 2]: 6.93
CCCCC/C=C\C/C=C\CCCCCCCCC(CCCCCCCC/C=C\C/C=C\CCCCC)ON=C(C)CCN(C)C [ALNY-149] |  |  | Lipid A ED50 (Factor VII; formulation 40:10:40:10): 0.050 mg/kg; pKa ([1]; probe 2-(p-toluidino)-6-naphthalenesulfonic acid (TNS), 1 µM final, Lipid A pKa (±0.2), Lipid A by itself, formulation 40:10:40:10 (cationic lipid:DSPC:cholesterol:PEG-DMG)): 6.05
CCCCC/C=C\C/C=C\CCCCCCCCC(CCCCCCCC/C=C\C/C=C\CCCCC)OC(=O)CCCCCN(C)C [DLin-M-C5-DMA] |  | 0.65 mg/kg | 
CCCCC/C=C\C/C=C\CCCCCCCCC(CCCCCCCC/C=C\C/C=C\CCCCC)OC(=O)CCCN(C(C)C)C(C)C [DLin-M-C3-DIPA] |  | 4.50 mg/kg and 4.5 mg/kg | 
CCCCC/C=C\C/C=C\CCCCCCCCC1(CCCCCCCC/C=C\C/C=C\CCCCC)OCC(CN(C)C)O1 (stereo not shown) [DLin-K-DMA (CDRD)] |  | 0.40 mg/kg | pKa [1, 2]: 5.91
CCCCC/C=C\C/C=C\CCCCCCCCC1(CCCCCCCC/C=C\C/C=C\CCCCC)OCC(CN(C)C)CO1 [DLin-K6S-C1-DMA] | 5.97 | 0.10 mg/kg | 
CCCCC/C=C\C/C=C\CCCCCCCCC(CCCCCCCC/C=C\C/C=C\CCCCC)OC(=O)CCCNCC [DLin-M-C3-EA] |  | 5.00 mg/kg | pKa [1, 2]: 7.62
CCCCC/C=C\C/C=C\CCCCCCCCC1(CCCCCCCC/C=C\C/C=C\CCCCC)OCC(CCN(C)C)O1 (stereo not shown) [DLin-K5-C2-DMA] |  | 0.10 mg/kg | pKa ([1]; probe 2-(p-toluidino)-6-naphthalenesulfonic acid (TNS), 1 µM final): 6.68
CCCCC/C=C\C/C=C\CCCCCCCCC(CCCCCCCC/C=C\C/C=C\CCCCC)OC(=O)CCCN(CC)CC [DLin-M-C3-DEA] |  | 0.30 mg/kg and 0.3 mg/kg | pKa [1, 2]: 6.17
CCCCC/C=C\C/C=C\C/C=C\CCCCCC(CCCCC/C=C\C/C=C\C/C=C\CCCCC)OC(=O)CCCN(C)C [DLen(γ)-M-C3-DMA] | 6.3 | 0.08 mg/kg | 
CCCCC/C=C\C/C=C\CCCCCCCC(=O)OCC(CN(C)C)OC(=O)CCCCCCC/C=C\C/C=C\CCCCC (stereo not shown) [DLin-DAP-DMA] | 5.67 |  | 
CCCCC/C=C\C/C=C\CCCCCCCCC(CCCCCCCC/C=C\C/C=C\CCCCC)OC(=O)CCCN(C)C [DLin-M-C3-DMA] |  | 0.03 mg/kg | Lipid A ED50 (Factor VII; formulation 40:10:40:10): 0.030 mg/kg; Lipid A ED50 (Factor VII; formulation 50:10:38.5:1.5): 0.010 mg/kg; Lipid B ED50 (Factor VII; formulation 40:10:40:10): 0.030 mg/kg
CCCCC/C=C\C/C=C\CCCCCCCCC1(CCCCCCCC/C=C\C/C=C\CCCCC)OCC(CN(C)C)O1 (stereo not shown) [DLin-K-DMA (Biofine)] | 5.94 | 0.25 mg/kg | 
CCCCCCCCCCC(O)CN(CCN1CCN(CCN(CC(O)CCCCCCCCCC)CC(O)CCCCCCCCCC)CC1)CCN(CC(O)CCCCCCCCCC)CC(O)CCCCCCCCCC (stereo not shown) [Compound C12-200, reference compound] |  |  | Lipid B ED50 (Factor VII; formulation 40:10:40:10): 0.030 mg/kg; Lipid B pKa (±0.2) [1]: 6.47

Continued, in another order:

pKa [1, 3] | SMILES | ED50 (Factor VII) | also measured
3.93 | CCCCC/C=C\C/C=C\CCCCCCCCC(CCCCCCCC/C=C\C/C=C\CCCCC)OC(=O)C(CCN(C)C)C(=O)OC(CCCCCCCC/C=C\C/C=C\CCCCC)CCCCCCCC/C=C\C/C=C\CCCCC [TLin-MAL-C2-DMA] |  | 
> 1 | CCCCC/C=C\C/C=C\CCCCCCCCC(CCCCCCC/C=C\C/C=C\CCCCC)OC(=O)CCC[N+](C)(C)C (stereo not shown) [DLin-M-C3-TMA] |  | Lipid B ED50 (Factor VII; formulation 40:10:40:10): >1.00 mg/kg
6.66 | CCCCC/C=C\C/C=C\CCCCCCCCOC(=O)C(CCN(C)C)C(=O)OCCCCCCCC/C=C\C/C=C\CCCCC [DLin-MAL-C2-DMA] | 1.50 mg/kg | 
6.65 | CCCCC/C=C\C/C=C\CCCCCCCCC1(CCCCCCCC/C=C\C/C=C\CCCCC)OC[C@H](CCN(C)C)O1 [DLin-K-XTC2-DMA-(S)] | 0.10 mg/kg | 
6.79 | CCCCC/C=C\C/C=C\CCCCCCCCC1(CCCCCCCC/C=C\C/C=C\CCCCC)OC[C@@H](CCN(C)C)O1 [DLin-K-XTC2-DMA-(R)] | 0.10 mg/kg | 
